Test results published in patent US6525001B1, “Substituted pyrimidine and pyridine herbicides” (Mid-American Commercialization Corporation, priority 1997, dated 2003).

Legend:
Type in all cases: in vivo
[1] = test system: wild oat (Avena fatua); experiment: Test D; conditions: PREEMERGENCE
[2] = test system: chickweed (Stellaria media); experiment: Test D; parameters: key: 0 is no effect; 100 is complete control; conditions: POSTEMERGENCE
Description: (§1) Compounds evaluated in this test were formulated in a non-phytotoxic solvent mixture which included a surfactant and applied to plants that were in the 1- to 4-leaf stage (postemergence application). A mixture of sandy loam soil and greenhouse potting mix in a 60:40 ratio was used for the postemergence test.
(§2) Plantings of these crops and weed species were adjusted to produce plants of appropriate size for the postemergence test. All plant species were grown using normal greenhouse practices. Crop and weed species include alfalfa (Medicago sativa), annual bluegrass (Poa annua), blackgrass (Alopecurus myosuroides), black nightshade (Solanum nigra), chickweed (Stellaria media), common poppy (Papaver rhoeas), deadnettle (Lamium amplexicaule), downy brome (Bromus tectorum), field violet (Viola arvensis), galium 2 (Galium aparine), green foxtail (Setaria viridis), Italian ryegrass (Lolium multiflorum), jointed goatgrass (Aegilops cylindrica), kochia (Kochia scoparia), lambsquarters (Chenopodium album), lentil (Lens culinaris), littleseed canarygrass (Phalaris minor), pea (Pisum sativum), potato (Solanum tuberosum), rape (Brassica napus), redroot pigweed (Amaranthus retroflexus), Russian thistle (Salsola kali), scentless chamomile (Matricaria inodora), sorghum (Sorghum vulgare), spring barley (Hordeum vulgare), sugar beet (Beta vulgaris), sunflower (Helianthus annuus), ivyleaf speedwell (Veronica hederaefolia), spring wheat (Triticum aestivum), winter wheat (Triticum aestivum), wild buckwheat (Polygonum convolvulus), wild mustard (Sinapis arvensis), wild oat (Avena fatua), windgrass (Apera spica-venti) and winter barley (Hordeum vulgare).
(§3) Treated plants and untreated controls were maintained in a greenhouse for approximately 21 to 28 days, after which all treated plants were compared to untreated controls and visually evaluated. Plant response ratings, summarized in Table D, are based upon a 0 to 100 scale where 0 is no effect and 100 is complete control. A dash response (−) means no test result.

[3] = test system: rape (Brassica napus); experiment: Test D; parameters: key: 0 is no effect; 100 is complete control; conditions: POSTEMERGENCE
Description: as §1, §2, §3

[4] = test system: common poppy (Papaver rhoeas); experiment: Test D; parameters: key: 0 is no effect; 100 is complete control; conditions: POSTEMERGENCE
Description: as §1, §2, §3

[5] = test system: wild mustard (Sinapis arvensis); experiment: Test D; parameters: key: 0 is no effect; 100 is complete control; conditions: POSTEMERGENCE
Description: as §1, §2, §3

[6] = test system: deadnettle (Lamium amplexicaule); experiment: Test D; parameters: key: 0 is no effect; 100 is complete control; conditions: POSTEMERGENCE
Description: as §1, §2, §3

[7] = test system: black nightshade (Solanum nigra); experiment: Test D; parameters: key: 0 is no effect; 100 is complete control; conditions: POSTEMERGENCE
Description: as §1, §2, §3

[8] = test system: sugar beet (Beta vulgaris); experiment: Test D; parameters: key: 0 is no effect; 100 is complete control; conditions: POSTEMERGENCE
Description: as §1, §2, §3

[9] = test system: scentless chamomile (Matricaria inodora); experiment: Test D; conditions: PREEMERGENCE
[10] = test system: littleseed canarygrass (Phalaris minor); experiment: Test D; conditions: PREEMERGENCE
[11] = test system: barnyardgrass (Echinochloa crus-galli); experiment: Test E pre-/postemergence/post directed; conditions: PREEMERGENCE
In short: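 Injury scored visually on a 0–100 scale (100 = complete control) 13 to 21 days after treatment. Test chemicals, formulated with surfactant in non-phytotoxic solvent, were applied to soil within one day of planting, to plants at two to four leaves (three to twenty cm), or as directed spray at plant base.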

[12] = test system: spring barley (Hordeum vulgare); experiment: Test D; conditions: PREEMERGENCE
[13] = test system: black nightshade (Solanum nigra); experiment: Test D; parameters: key: 0 is no effect; 100 is complete control; conditions: PREEMERGENCE
[14] = test system: ivyleaf speedwell (Veronica hederaefolia); experiment: Test D; parameters: key: 0 is no effect; 100 is complete control; conditions: PREEMERGENCE
[15] = test system: winter barley (Hordeum vulgare); experiment: Test D; conditions: PREEMERGENCE
[16] = test system: Russian thistle (Salsola kali); experiment: Test D; parameters: key: 0 is no effect; 100 is complete control; conditions: PREEMERGENCE

`Cc1cnc(-c2ccc(C(F)(F)F)cc2)nc1Cc1cccc(C(F)(F)F)c1` [Example 1, 5-methyl-2-[4-(trifluoromethyl)phenyl]-4-[[3-(trifluoromethyl)phenyl]methyl]pyrimidine] was tested, and the “Plant response rating, Wild oat” value ([1]; Rate 31 g/ha) was 20, the “Plant response rating, Wild oat” value ([1]; Rate 62 g/ha) was 60 and the “Plant response rating, Wild oat” value ([1]; Rate 125 g/ha) was 60. The “Plant response rating, Wild oat” value ([1]; Rate 250 g/ha) was 90, the “Plant response rating, Chickweed” value ([2]; Rate 16 g/ha) was 80 and the “Plant response rating, Chickweed” value ([2]; Rate 62 g/ha) was 80. For the same molecule, the “Plant response rating, Chickweed” value ([2]; Rate 125 g/ha) was 70, the “Plant response rating, Rape” value ([3]; Rate 16 g/ha) was 65 and the “Plant response rating, Rape” value ([3]; Rate 31 g/ha) was 100. For the same molecule, the “Plant response rating, Rape” value ([3]; Rate 62 g/ha) was 100, the “Plant response rating, Rape” value ([3]; Rate 125 g/ha) was 85 and the “Plant response rating, Common poppy” value ([4]; Rate 16 g/ha) was 50. For the same molecule, the “Plant response rating, Common poppy” value ([4]; Rate 31 g/ha) was 100, the “Plant response rating, Common poppy” value ([4]; Rate 62 g/ha) was 100 and the “Plant response rating, Common poppy” value ([4]; Rate 125 g/ha) was 100. The “Plant response rating, Wild mustard” value ([5]; Rate 16 g/ha) was 85, the “Plant response rating, Wild mustard” value ([5]; Rate 31 g/ha) was 100 and the “Plant response rating, Wild mustard” value ([5]; Rate 62 g/ha) was 100. For the same molecule, the “Plant response rating, Wild mustard” value ([5]; Rate 125 g/ha) was 100, the “Plant response rating, Deadnettle” value ([6]; Rate 16 g/ha) was 85 and the “Plant response rating, Deadnettle” value ([6]; Rate 31 g/ha) was 70. The “Plant response rating, Deadnettle” value ([6]; Rate 62 g/ha) was 70, the “Plant response rating, Deadnettle” value ([6]; Rate 125 g/ha) was 70 and the “Plant response rating, Blk nightshade” value ([7]; Rate 16 g/ha) was 60. For the same molecule, the “Plant response rating, Blk nightshade” value ([7]; Rate 62 g/ha) was 50, the “Plant response rating, Blk nightshade” value ([7]; Rate 125 g/ha) was 50 and the “Plant response rating, Sugar beet” value ([8]; Rate 16 g/ha) was 45. For the same molecule, the “Plant response rating, Sugar beet” value ([8]; Rate 31 g/ha) was 75, the “Plant response rating, Sugar beet” value ([8]; Rate 62 g/ha) was 90 and the “Plant response rating, Sugar beet” value ([8]; Rate 125 g/ha) was 100. For the same molecule, the “Plant response rating, Scentless chamo” value ([9]; Rate 31 g/ha) was 30, the “Plant response rating, Scentless chamo” value ([9]; Rate 62 g/ha) was 70 and the “Plant response rating, Scentless chamo” value ([9]; Rate 125 g/ha) was 75. The “Plant response rating, Scentless chamo” value ([9]; Rate 250 g/ha) was 85, the “Plant response rating, LS canarygrass” value ([10]; Rate 31 g/ha) was 20 and the “Plant response rating, LS canarygrass” value ([10]; Rate 62 g/ha) was 60. For the same molecule, the “Plant response rating, LS canarygrass” value ([10]; Rate 125 g/ha) was 85, the “Plant response rating, LS canarygrass” value ([10]; Rate 250 g/ha) was 70 and the “Plant response rating, Barnyardgrass” value ([11]; Rate 32 g/ha) was 5. The “Plant response rating, Barnyardgrass” value ([11]; Rate 64 g/ha) was 70, the “Plant response rating, Barnyardgrass” value ([11]; Rate 125 g/ha) was 80 and the “Plant response rating, Spring Barley” value ([12]; Rate 31 g/ha) was 10. For the same molecule, the “Plant response rating, Spring Barley” value ([12]; Rate 62 g/ha) was 20, the “Plant response rating, Spring Barley” value ([12]; Rate 125 g/ha) was 20 and the “Plant response rating, Spring Barley” value ([12]; Rate 250 g/ha) was 40. For the same molecule, the “Plant response rating, Blk nightshade” value ([13]; Rate 31 g/ha) was 55, the “Plant response rating, Blk nightshade” value ([13]; Rate 62 g/ha) was 90 and the “Plant response rating, Blk nightshade” value ([13]; Rate 125 g/ha) was 100. For the same molecule, the “Plant response rating, Blk nightshade” value ([13]; Rate 250 g/ha) was 100, the “Plant response rating, Ivyleaf speedwe” value ([14]; Rate 31 g/ha) was 50 and the “Plant response rating, Ivyleaf speedwe” value ([14]; Rate 62 g/ha) was 100. The “Plant response rating, Ivyleaf speedwe” value ([14]; Rate 125 g/ha) was 100, the “Plant response rating, Ivyleaf speedwe” value ([14]; Rate 250 g/ha) was 100 and the “Plant response rating, Barley (winter)” value ([15]; Rate 31 g/ha) was 10. The “Plant response rating, Barley (winter)” value ([15]; Rate 62 g/ha) was 20, the “Plant response rating, Barley (winter)” value ([15]; Rate 125 g/ha) was 30 and the “Plant response rating, Barley (winter)” value ([15]; Rate 250 g/ha) was 40. For the same molecule, the “Plant response rating, Russian thistle” value ([16]; Rate 31 g/ha) was 10, the “Plant response rating, Russian thistle” value ([16]; Rate 62 g/ha) was 100 and the “Plant response rating, Russian thistle” value ([16]; Rate 250 g/ha) was 100.
